Where only a bound is given, the exact number is not on record here.

The test system of one test is PKC mediated IL-2 production. The experiment in a line: IL-2 ELISA, human primary T cell, anti CD3+CD28+. To be noted: Homo sapiens, T-cell, 24 h, human primary T cells stimulated with αCD3 and αCD28, 24 hours. It is filed as cell-based. The method in brief:
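IL-2 was quantified by ELISA in 24 h supernatants from primary human T cells given a 1 h compound pre-treatment at 37° C. These cells had been expanded from blood mononuclear cells on αCD3/αCD28 with IL-2, and the IL-2 was removed by washing. Stimulation used plate-bound αCD3 ([…]) plus αCD28 (5 μg/ml); the counter assay used PMA (0.5 ng/ml) with ionomycin (0.1 uM) instead.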
In turn, `COc1ccc(Nc2ncc(F)c(N[C@@H]3C[C@@H]4CCCN4C(C)(C)C3)n2)cc1-n1nnn(C2COC2)c1=O` [Compound 285, 1-(5-(4-((7R,8aS)-octahydro-5,5-dimethylindolizin-7-ylamino)-5-fluoropyrimidin-2-ylamino)-2-methoxyphenyl)-4-(oxetan-3-yl)-1H-tetrazol-5(4H)-one] yielded an EC50 of 100 to 500 nM.
On the same count and under the same terms, the figure for `Cc1ccc(Nc2ncc(F)c(N[C@@H]3C[C@@H]4CCCN4C(C)(C)C3)n2)cc1-n1nnnc1S(C)(=O)=O` [Compound 286, 5-fluoro-N4-((7R,8aS)-octahydro-5,5-dimethylindolizin-7-yl)-N2-(4-methyl-3-(5-(methylsulfonyl)-1H-tetrazol-1-yl)phenyl)pyrimidine-2,4-diamine] is more than 10000 nM; for `Cn1nc2n(c1=O)-c1cc(Nc3ncc(F)c(N[C@@H]4C[C@@H]5CCCN5C(C)(C)C4)n3)ccc1OC2(CO)CO` [Compound 288, 5-fluoro-N2-(1H-2,4-dihydron-4,4-di(hydroxymethyl)-2-methyl-[1,2,4]triazolo[3,4-c][1,4]benzoxazin-1-one-8-yl)-N4-((7R,8aS)-octahydro-5,5-dimethylindolizin-7-yl)pyrimidine-2,4-diamine] it is 1000 to 10000 nM.
On the same count and under the same terms, the figure for `Cc1ccc(Nc2ncc(F)c(N[C@@H]3C[C@@H]4CCCN4C(C)(C)C3)n2)cc1-n1nnn(CC(C)(C)O)c1=O` [Compound 289, 1-(5-(4-((7R,8aS)-octahydro-5,5-dimethylindolizin-7-ylamino)-5-fluoropyrimidin-2-ylamino)-2-methylphenyl)-4-(2-hydroxy-2-methylpropyl)-1H-tetrazol-5(4H)-one] is less than 100 nM; for `COc1ccc(Nc2ncc(F)c(N[C@@H]3C[C@@H]4CCCN4C(C)(C)C3)n2)cc1-n1nnn(CC(C)(C)O)c1=O` [Compound 290, 1-(5-(4-((7R,8aS)-octahydro-5,5-dimethylindolizin-7-ylamino)-5-fluoropyrimidin-2-ylamino)-2-methoxyphenyl)-4-(2-hydroxy-2-methylpropyl)-1H-tetrazol-5(4H)-one] it is 100 to 500 nM.
`Cn1nc2n(c1=O)-c1cc(Nc3ncc(F)c(N[C@@H]4C[C@@H]5CCCN5C(C)(C)C4)n3)ccc1OC2` [Compound 291, 5-fluoro-N2-(1H-2,4-dihydron-2-methyl-[1,2,4]triazolo[3,4-c][1,4]benzoxazin-1-one-8-yl)-N4-((7R,8aS)-octahydro-5,5-dimethylindolizin-7-yl)pyrimidine-2,4-diamine] displayed an EC50 of 100 to 500 nM.
Still for that read-out and setting: the value for `Cn1nc2n(c1=O)-c1cc(Nc3ncc(F)c(N[C@@H]4C[C@@H]5CCCN5C(C)(C)C4)n3)ccc1OCC2(C)O` (stereo partly drawn) [Compound 292, 5-fluoro-N2-(1H-2,3,4,5-tetrahydron-2,4-dimethyl-4-hydroxy-[1,2,4]triazolo[4,5-c][1,5]benzoxazepin-1-one-9-yl)-N4-((7R,8aS)-octahydro-5,5-dimethylindolizin-7-yl)pyrimidine-2,4-diamine] was 500 to 1000 nM; that for `Cn1nc2n(c1=O)-c1cc(Nc3ncc(F)c(N[C@@H]4C[C@@H]5CCCN5C(C)(C)C4)n3)ccc1OC21COC1` [Compound 293, 5-fluoro-N2-(1H-2,4-dihydron-spiro(2H-1,4-benzoxazine-4,3′-[3H]oxetan)-2-methyl-[1,2,4]triazolo[3,4-c][1,4]benzoxazin-1-one-8-yl)-N4-((7R,8aS)-octahydro-5,5-dimethylindolizin-7-yl)pyrimidine-2,4-diamine] was 100 to 500 nM; that for `COCC1(COC)Oc2ccc(Nc3ncc(F)c(N[C@@H]4C[C@@H]5CCCN5C(C)(C)C4)n3)cc2-n2c1nn(C)c2=O` [Compound 296, 5-fluoro-N2-(1H-2,4-dihydron-2-methyl-4,4-di(methoxymethyl)[1,2,4]triazolo[3,4-c][1,4]benzoxazin-1-one-8-yl)-N4-((7R,8aS)-octahydro-5,5-dimethylindolizin-7-yl)pyrimidine-2,4-diamine] was 500 to 1000 nM.
Still for that read-out and setting: the value for `CC1(C)CC[C@H]2C[C@@H](Nc3nc(Nc4ccc(N5CCOCC5)c(OC(F)F)c4)ncc3F)CCN21` [Compound 297] was 100 to 500 nM.
The same measure, in the same setting: the value for `CC1(C)CC[C@H]2C[C@@H](Nc3nc(Nc4ccc(OC5COC5)c(OC(F)F)c4)ncc3F)CCN21` [Compound 298, N2-(3-(Difluoromethoxy)-4-(oxetan-3-yloxy)phenyl)-N4-((7S,8aS)-3,3-dimethyloctahydroindolizin-7-yl)-5-fluoropyrimidine-2,4-diamine] was 100 to 500 nM; that for `COc1ccc(Nc2ncc(F)c(N[C@H]3CCN4[C@@H](CCC4(C)C)C3)n2)cc1OC(F)F` [Compound 299, N2-(3-(Difluoromethoxy)-4-methoxyphenyl)-N4-((7S,8aS)-3,3-dimethyloctahydroindolizin-7-yl)-5-fluoropyrimidine-2,4-diamine] was 100 to 500 nM.
For `CC1CN(c2ccc(Nc3ncc(F)c(N[C@H]4CCN5[C@@H](CCC5(C)C)C4)n3)cc2OC(F)F)CC(C)O1` (stereo partly drawn) [Compound 300, N2-(3-(Difluoromethoxy)-4-(2,6-dimethylmorpholino)phenyl)-N4-((7S,8aS)-3,3-dimethyloctahydroindolizin-7-yl)-5-fluoropyrimidine-2,4-diamine], the half-maximal effective concentration (EC50) was in the range of 100 to 500 nM.
On the same count and under the same terms, the value for `CC1(C)CC[C@H]2C[C@@H](Nc3nc(Nc4cc(-n5nnnc5C5COC5)c(C5CC5)cc4F)ncc3F)CCN21` [Compound 301, N2-(4-Cyclopropyl-2-fluoro-5-(5-(oxetan-3-yl)-1H-tetrazol-1-yl)phenyl)-N4-((7S,8aS)-3,3-dimethyloctahydroindolizin-7-yl)-5-fluoropyrimidine-2,4-diamine] was less than 100 nM; that for `CC1(C)CC[C@H]2C[C@@H](Nc3nc(Nc4ccc(N5CC6(COC6)C5)c(OC(F)F)c4)ncc3F)CCN21` [Compound 302, N2-(3-(Difluoromethoxy)-4-(2-oxa-6-azaspiro[3.3]heptan-6-yl)phenyl)-N4-((7S,8aS)-3,3-dimethyloctahydroindolizin-7-yl)-5-fluoropyrimidine-2,4-diamine] was 500 to 1000 nM.
Same read-out and setting: the value for `CC1(C)CC[C@H]2C[C@@H](Nc3nc(Nc4ccc(OCCO)c(OC(F)F)c4)ncc3F)CCN21` [Compound 303, 2-(2-(Difluoromethoxy)-4-((4-(((7S,8aS)-3,3-dimethyloctahydroindolizin-7-yl)amino)-5-fluoropyrimidin-2-yl)amino)phenoxy)ethan-1-ol] was 100 to 500 nM; that for `CC1(C)CC[C@H]2C[C@@H](Nc3nc(Nc4ccc(OC5CC(O)C5)c(C#N)c4)ncc3F)CCN21` (stereo partly shown) [Compound 304] was 100 to 500 nM; that for `CC1(C)CC[C@H]2C[C@@H](Nc3nc(Nc4ccc(OC5CC(O)C5)c(C(F)(F)F)c4)ncc3F)CCN21` (stereo partly drawn) [Compound 305, 3-(4-((4-(((7S,8aS)-3,3-Dimethyloctahydroindolizin-7-yl)amino)-5-fluoropyrimidin-2-yl)amino)-2-(trifluoromethyl)phenoxy)cyclobutan-1-ol] was 100 to 500 nM.
Same read-out and setting: the figure for `CC1(C)CC[C@H]2C[C@@H](Nc3nc(Nc4ccc(OC5CC(O)C5)c(OC(F)F)c4)ncc3F)CCN21` (stereo partly drawn) [Compound 306, 3-(2-(Difluoromethoxy)-4-((4-(((7S,8aS)-3,3-dimethyloctahydroindolizin-7-yl)amino)-5-fluoropyrimidin-2-yl)amino)phenoxy)cyclobutan-1-ol] is 100 to 500 nM; for `CC1(C)CC[C@H]2C[C@@H](Nc3nc(Nc4ccc(OCCCO)c(OC(F)F)c4)ncc3F)CCN21` [Compound 307, 3-(2-(Difluoromethoxy)-4-((4-(((7S,8aS)-3,3-dimethyloctahydroindolizin-7-yl)amino)-5-fluoropyrimidin-2-yl)amino)phenoxy)propan-1-ol] it is 100 to 500 nM; for `CC1(C)CC[C@H]2C[C@@H](Nc3nc(Nc4ccc(N5CC(O)C5)c(OC(F)F)c4)ncc3F)CCN21` [Compound 308, 1-(2-(Difluoromethoxy)-4-((4-(((7S,8aS)-3,3-dimethyloctahydroindolizin-7-yl)amino)-5-fluoropyrimidin-2-yl)amino)phenyl)azetidin-3-ol] it is 500 to 1000 nM.
`[2H]C1(Oc2ccc(Nc3ncc(F)c(N[C@H]4CCN5[C@@H](CCC5(C)C)C4)n3)cc2-n2nnn(C)c2=O)CC(O)C1` (stereo partly drawn) [Compound 309, 1-(5-((4-(((7S,8aS)-3,3-Dimethyloctahydroindolizin-7-yl)amino)-5-fluoropyrimidin-2-yl)amino)-2-(3-hydroxycyclobutoxy-1-d)phenyl)-4-methyl-1,4-dihydro-5H-tetrazol-5-one] came in with a concentration for a half-maximal effect (EC50) of 100 to 500 nM.
The same measure, in the same setting: the figure for `CC1(C)CC[C@H]2C[C@@H](Nc3nc(Nc4ccc(OC5CC(OCc6ccccc6)C5)c(Cl)c4)ncc3F)CCN21` (stereo partly drawn) [Compound 310, N2-(4-(3-(Benzyloxy)cyclobutoxy)-3-chlorophenyl)-N4-((7S,8aS)-3,3-dimethyloctahydroindolizin-7-yl)-5-fluoropyrimidine-2,4-diamine] is 1000 to 10000 nM.

Staying with this test, now noted: T-cell, human primary T cells stimulated with αCD3 and αCD28, 24 hours.
The molecule `Cn1nc2n(c1=O)-c1cc(Nc3ncc(F)c(N[C@@H]4C[C@@H]5CCCN5C(C)(C)C4)n3)ccc1OC2(CO)CO[Si](C)(C)C(C)(C)C` (stereo partly drawn) [Compound 287, 5-fluoro-N2-(1H-2,4-dihydron-4-(hydroxymethyl)-4-(((1,1-dimethylethyl)dimethylsilyl)oxymethyl)-2-methyl-[1,2,4]triazolo[3,4-c][1,4]benzoxazin-1-one-8-yl)-N4-((7R,8aS)-octahydro-5,5-dimethylindolizin-7-yl)pyrimidine-2,4-diamine] registered an EC50 of 1000 to 10000 nM.

The test is the same for the next values; noted with them: human primary T cells stimulated with αCD3 and αCD28, 24 hours.
Regarding `Cn1nc2n(c1=O)-c1cc(Nc3ncc(F)c(N[C@@H]4C[C@@H]5CCCN5C(C)(C)C4)n3)ccc1OCC2(C)O` (stereo partly drawn) [Compound 295, 5-fluoro-N2-(1H-2,3,4,5-tetrahydron-2,4-dimethyl-4-hydroxy-[1,2,4]triazolo[4,5-c][1,5]benzoxazepin-1-one-9-yl)-N4-((7R,8aS)-octahydro-5,5-dimethylindolizin-7-yl)pyrimidine-2,4-diamine], the EC50 is 500 to 1000 nM.

The record behind these values is US9682976B2, “Protein kinase C inhibitors and uses thereof” (Rigel Pharmaceuticals, Inc., priority 2012, dated 2017).
